Measured values published in patent publication US10633379B2, “Bromodomain inhibitors” (AbbVie Inc., priority 2016, dated 2020).

Legend:
BRD4 (BDI_K57-E168) = BRD4 (BDI_K57-E168) (Homo sapiens (Human), UniProt O60885); experiment: TR-FRET bromodomain binding assay, BRD4 BDI; conditions: mean Ki, calculated from IC50, probe Kd and probe concentration
Summary of the method: (§1)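 His-tagged BRD4 BDI (12 nM, with 100 nM Alexa647 BET-inhibitor probe) or BDII (4 nM, 30 nM probe), plus 1 nM Eu-anti-His antibody, in pH 6.0 phosphate buffer with 2% DMSO. Equilibrated 1 h at room temperature and read by TR-FRET. IC50 from a 4-parameter fit was converted to Ki using probe Kd and probe concentration.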

BRD4 (BDII_E352-M457) = BRD4 (BDII_E352-M457) (Homo sapiens (Human), UniProt O60885); experiment: TR-FRET bromodomain binding assay, BRD4 BDII; conditions: mean Ki, calculated from IC50, probe Kd and probe concentration
Summary of the method: as §1

Row | Compound | Ki (BRD4 (BDI_K57-E168)) | Ki (BRD4 (BDII_E352-M457))
1 | CCNC(=O)c1cc2c(-c3nc(C(C)(C)O)ccc3Oc3c(C)cc(F)cc3C)cn(C)c(=O)c2[nH]1 [Example 96, N-ethyl-4-[3-(4-fluoro-2,6-dimethylphenoxy)-6-(2-hydroxypropan-2-yl)pyridin-2-yl]-6-methyl-7-oxo-6,7-dihydro-1H-pyrrolo[2,3-c]pyridine-2-carboxamide] | 801 nM | 9.1 nM
2 | Cc1cc(F)cc(C)c1Oc1ccc(C(C)(C)O)nc1-c1cn(C)c(=O)c2[nH]c(C(=O)NC(C)(C)C)cc12 [Example 97, N-tert-butyl-4-[3-(4-fluoro-2,6-dimethylphenoxy)-6-(2-hydroxypropan-2-yl)pyridin-2-yl]-6-methyl-7-oxo-6,7-dihydro-1H-pyrrolo[2,3-c]pyridine-2-carboxamide] | 657 nM | 24.7 nM
3 | CCNC(=O)c1cc2c(-c3cc(C(C)(C)O)ccc3Oc3c(C)cc(F)cc3C(F)F)cn(C)c(=O)c2[nH]1 [Example 98, 4-{2-[2-(difluoromethyl)-4-fluoro-6-methylphenoxy]-5-(2-hydroxypropan-2-yl)phenyl}-N-ethyl-6-methyl-7-oxo-6,7-dihydro-1H-pyrrolo[2,3-c]pyridine-2-carboxamide] | 682 nM | 9.6 nM
4 | CCNC(=O)c1cc2c(-c3cc(C(C)(O)CC(C)C)ccc3Oc3c(C)cccc3C)cn(C)c(=O)c2[nH]1 (stereo not drawn) [Example 105, 4-[2-(2,6-dimethylphenoxy)-5-(2-hydroxy-4-methylpentan-2-yl)phenyl]-N-ethyl-6-methyl-7-oxo-6,7-dihydro-1H-pyrrolo[2,3-c]pyridine-2-carboxamide] | 1340 nM | 2.5 nM
5 | CCNC(=O)c1cc2c(-c3cc(C(C)(C)O)ccc3Oc3c(C)cc(C(C)(C)O)cc3C)cn(C)c(=O)c2[nH]1 [Example 107, N-ethyl-4-{5-(2-hydroxypropan-2-yl)-2-[4-(2-hydroxypropan-2-yl)-2,6-dimethylphenoxy]phenyl}-6-methyl-7-oxo-6,7-dihydro-1H-pyrrolo[2,3-c]pyridine-2-carboxamide] | 231 nM | 0.8 nM
6 | Cc1cc(C(C)(C)O)cc(C)c1Oc1ccc(C(C)(C)O)cc1-c1cn(C)c(=O)c2[nH]c(C(=O)NC(C)(C)C)cc12 [Example 108, N-tert-butyl-4-{5-(2-hydroxypropan-2-yl)-2-[4-(2-hydroxypropan-2-yl)-2,6-dimethylphenoxy]phenyl}-6-methyl-7-oxo-6,7-dihydro-1H-pyrrolo[2,3-c]pyridine-2-carboxamide] | 175 nM | 1.6 nM
7 | CCNC(=O)c1cc2c(-c3cc(C(C)(C)O)ccc3-c3ccc(OC(F)(F)F)cc3)cn(C)c(=O)c2[nH]1 [Example 110, N-ethyl-4-[4-(2-hydroxypropan-2-yl)-4′-(trifluoromethoxy) [1,1′-biphenyl]-2-yl]-6-methyl-7-oxo-6,7-dihydro-1H-pyrrolo[2,3-c]pyridine-2-carboxamide] | 224 nM | 2 nM
8 | CCNC(=O)c1cc2c(-c3cc(C(C)(C)O)ccc3C3=CCC(F)(F)CC3)cn(C)c(=O)c2[nH]1 [Example 111, 4-[4′,4′-difluoro-4-(2-hydroxypropan-2-yl)[2′,3′,4′,5′-tetrahydro[1,1′-biphenyl]]-2-yl]-N-ethyl-6-methyl-7-oxo-6,7-dihydro-1H-pyrrolo[2,3-c]pyridine-2-carboxamide] | 150 nM | 1.4 nM
9 | Cc1cc(F)cc(C)c1Oc1ccc(C(C)(C)O)cc1-c1cn(C)c(=O)c2[nH]c(C(N)=O)cc12 [Example 112, 4-[2-(4-fluoro-2,6-dimethylphenoxy)-5-(2-hydroxypropan-2-yl)phenyl]-6-methyl-7-oxo-6,7-dihydro-1H-pyrrolo[2,3-c]pyridine-2-carboxamide] | 332 nM | 2.3 nM
10 | CCNC(=O)c1cc2c(-c3cc(C(C)(C)O)ccc3C3=CCC(C)CC3)cn(C)c(=O)c2[nH]1 (stereo not drawn) [Example 113, N-ethyl-4-[4-(2-hydroxypropan-2-yl)-4′-methyl[2′,3′,4′,5′-tetrahydro[1,1′-biphenyl]]-2-yl]-6-methyl-7-oxo-6,7-dihydro-1H-pyrrolo[2,3-c]pyridine-2-carboxamide] | 98 nM | 1.5 nM
11 | CCNC(=O)c1cc2c(-c3cc(C(C)(C)O)ccc3C3=CCCC3)cn(C)c(=O)c2[nH]1 [Example 114, 4-[2-(cyclopent-1-en-1-yl)-5-(2-hydroxypropan-2-yl)phenyl]-N-ethyl-6-methyl-7-oxo-6,7-dihydro-1H-pyrrolo[2,3-c]pyridine-2-carboxamide] | 96 nM | 1.3 nM
12 | CCNC(=O)c1cc2c(-c3cc(C(C)(O)CO)ccc3Oc3c(C)cccc3Cl)cn(C)c(=O)c2[nH]1 (stereo not drawn) [Example 115, 4-[2-(2-chloro-6-methylphenoxy)-5-(1,2-dihydroxypropan-2-yl)phenyl]-N-ethyl-6-methyl-7-oxo-6,7-dihydro-1H-pyrrolo[2,3-c]pyridine-2-carboxamide] | 323 nM | 1.4 nM

Results, then the compound that gave them:

Row | Ki (BRD4 (BDI_K57-E168)) | Ki (BRD4 (BDII_E352-M457)) | Compound
13 | 271 nM | 1.6 nM | CCNC(=O)c1cc2c(-c3cc(C(C)(C)O)cnc3Oc3c(C)ccc(F)c3C)cn(C)c(=O)c2[nH]1 [Example 91, N-ethyl-4-[2-(3-fluoro-2,6-dimethylphenoxy)-5-(2-hydroxypropan-2-yl)pyridin-3-yl]-6-methyl-7-oxo-6,7-dihydro-1H-pyrrolo[2,3-c]pyridine-2-carboxamide]
14 | 410 nM | 12.1 nM | Cc1cc(S(C)(=O)=O)cc(C)c1Oc1ncc(C(C)(C)O)cc1-c1cn(C)c(=O)c2[nH]c(C(=O)NC(C)(C)C)cc12 [Example 92, N-tert-butyl-4-{5-(2-hydroxypropan-2-yl)-2-[4-(methanesulfonyl)-2,6-dimethylphenoxy]pyridin-3-yl}-6-methyl-7-oxo-6,7-dihydro-1H-pyrrolo[2,3-c]pyridine-2-carboxamide]
15 | 502 nM | 10.9 nM | CCNC(=O)c1cc2c(-c3cc(C(C)(C)O)cnc3Oc3c(C)cc(S(C)(=O)=O)cc3C)cn(C)c(=O)c2[nH]1 [Example 93, N-ethyl-4-{5-(2-hydroxypropan-2-yl)-2-[4-(methanesulfonyl)-2,6-dimethylphenoxy]pyridin-3-yl}-6-methyl-7-oxo-6,7-dihydro-1H-pyrrolo[2,3-c]pyridine-2-carboxamide]
16 | 236 nM | 3.7 nM | CCNC(=O)c1cc2c(-c3cc(C(C)(C)O)cnc3Oc3c(C)cc(Cl)cc3C)cn(C)c(=O)c2[nH]1 [Example 94, 4-[2-(4-chloro-2,6-dimethylphenoxy)-5-(2-hydroxypropan-2-yl)pyridin-3-yl]-N-ethyl-6-methyl-7-oxo-6,7-dihydro-1H-pyrrolo[2,3-c]pyridine-2-carboxamide]
17 | 333 nM | 4.8 nM | Cc1cc(Cl)cc(C)c1Oc1ncc(C(C)(C)O)cc1-c1cn(C)c(=O)c2[nH]c(C(=O)NC(C)(C)C)cc12 [Example 95, N-tert-butyl-4-[2-(4-chloro-2,6-dimethylphenoxy)-5-(2-hydroxypropan-2-yl)pyridin-3-yl]-6-methyl-7-oxo-6,7-dihydro-1H-pyrrolo[2,3-c]pyridine-2-carboxamide]
18 | 431 nM | 1.8 nM | CCNC(=O)c1cc2c(-c3cc(C(C)(C)O)ccc3Oc3c(C)ccc(Cl)c3C)cn(C)c(=O)c2[nH]1 [Example 99, 4-[2-(3-chloro-2,6-dimethylphenoxy)-5-(2-hydroxypropan-2-yl)phenyl]-N-ethyl-6-methyl-7-oxo-6,7-dihydro-1H-pyrrolo[2,3-c]pyridine-2-carboxamide]
19 | 115 nM | 5.6 nM | Cn1cc(-c2cc(C(C)(C)O)cnc2Oc2c(Cl)cc(F)cc2Cl)c2cc(C(=O)NC(C)(C)C)[nH]c2c1=O [Example 100, N-tert-butyl-4-[2-(2,6-dichloro-4-fluorophenoxy)-5-(2-hydroxypropan-2-yl)pyridin-3-yl]-6-methyl-7-oxo-6,7-dihydro-1H-pyrrolo[2,3-c]pyridine-2-carboxamide]
20 | 110 nM | 2.5 nM | CCNC(=O)c1cc2c(-c3cc(C(C)(C)O)cnc3Oc3c(Cl)cc(F)cc3Cl)cn(C)c(=O)c2[nH]1 [Example 101, 4-[2-(2,6-dichloro-4-fluorophenoxy)-5-(2-hydroxypropan-2-yl)pyridin-3-yl]-N-ethyl-6-methyl-7-oxo-6,7-dihydro-1H-pyrrolo[2,3-c]pyridine-2-carboxamide]
21 | 309 nM | 2.5 nM | CCNC(=O)c1cc2c(-c3cc(C(C)(O)CF)cnc3Oc3c(C)cc(Cl)cc3C)cn(C)c(=O)c2[nH]1 (stereo not drawn) [Example 102, 4-[2-(4-chloro-2,6-dimethylphenoxy)-5-(1-fluoro-2-hydroxypropan-2-yl)pyridin-3-yl]-N-ethyl-6-methyl-7-oxo-6,7-dihydro-1H-pyrrolo[2,3-c]pyridine-2-carboxamide]
22 | 450 nM | 3.3 nM | Cc1cc(Cl)cc(C)c1Oc1ncc(C(C)(O)CF)cc1-c1cn(C)c(=O)c2[nH]c(C(=O)NC(C)(C)C)cc12 (stereo not drawn) [Example 103, N-tert-butyl-4-[2-(4-chloro-2,6-dimethylphenoxy)-5-(1-fluoro-2-hydroxypropan-2-yl)pyridin-3-yl]-6-methyl-7-oxo-6,7-dihydro-1H-pyrrolo[2,3-c]pyridine-2-carboxamide]
23 | 375 nM | 1.2 nM | CCNC(=O)c1cc2c(-c3cc(C(C)(C)O)ccc3Oc3c(C)ccc(F)c3C)cn(C)c(=O)c2[nH]1 [Example 104, N-ethyl-4-[2-(3-fluoro-2,6-dimethylphenoxy)-5-(2-hydroxypropan-2-yl)phenyl]-6-methyl-7-oxo-6,7-dihydro-1H-pyrrolo[2,3-c]pyridine-2-carboxamide]
24 | 169 nM | 1.1 nM | CCNC(=O)c1cc2c(-c3cc(C(C)(C)O)cnc3Oc3c(C)ccc(Cl)c3C)cn(C)c(=O)c2[nH]1 [Example 109, 4-[2-(3-chloro-2,6-dimethylphenoxy)-5-(2-hydroxypropan-2-yl)pyridin-3-yl]-N-ethyl-6-methyl-7-oxo-6,7-dihydro-1H-pyrrolo[2,3-c]pyridine-2-carboxamide]
